Measurements taken from patent US7802989B2, “Ozone tray” (CurOzone Ireland Ltd., priority 2000, dated 2010).

Tested on: white spots
Assay: Ozone applied through tray over teeth and gums with in situ orthodontic bands; teeth examined for white spots
Assay type: in vivo
Conditions: ozone introduced for up to 2 minutes
Excerpt: The method includes disposing the resilient elastomeric tray over the teeth 124 and orthodontic bands 160 applied thereto.
Ozone introduced into the cavity 136 via the port 150 is provided for a period of time to treat the white spots and sterilize the orthodontic bands 160.
Thereafter, the ozone is evacuated from the cavity 136 via the nozzle 128 and the tray 120 is removed from the arched upper or lower teeth 124.
The tray is disposed over teeth and gums with in situ orthodontic bands and ozone introduced for up to 2 minutes.

## O=[O+][O-] [ozone]
  examination of teeth for white spots after ozone treatment: beneficial results
